In brackets after ≈: the same amount, converted by molar mass.
Columns and labels:
[1] = system: HEK293; assay: Cytotoxicity against HEK293 cells assessed as reduction in cell viability at 2.5 uM incubated for 72 hrs by resazurin based fluorescence plate reader analysis; assay type: toxicity; conditions: human, hek293, 72 h
[2] = system: Plasmodium falciparum; assay: Antiplasmodial activity against Plasmodium falciparum 3D7 incubated for 72 hrs by DAPI staining based analysis; assay type: functional, organism-based; conditions: 3D7, 72 h
[3] = system: HEK293; assay: Cytotoxicity against HEK293 cells assessed as reduction in cell viability at 40 uM incubated for 72 hrs by resazurin based fluorescence plate reader analysis; assay type: toxicity; conditions: human, hek293, 72 h
[4] = system: Staphylococcus aureus; assay: Antibacterial activity against Methicillin-resistant Staphylococcus aureus ATCC 43300 incubated for 18 hrs by Luria-Bertani broth based plate reader analysis; assay type: functional
[5] = system: Staphylococcus aureus; assay: Antibacterial activity against Methicillin-sensitive Staphylococcus aureus ATCC 25923 incubated for 18 hrs by Luria-Bertani broth based plate reader analysis; assay type: functional
[6] = Cytotoxicity against HEK293 cells assessed as inhibition of cell growth at 40 uM incubated for 72 hrs by resazurin based fluorescence plate reader analysis relative to control; assay type: toxicity; conditions: human
[7] = Cytotoxicity against HEK293 cells assessed as inhibition of cell growth at 5 uM incubated for 72 hrs by resazurin based fluorescence plate reader analysis relative to control; assay type: toxicity; conditions: human

SMILES | Activity [1] | IC50 [2] [nM] | Activity [3] | MIC50 [4] [µM] | MIC50 [5] [µM] | inhibition at 72 h, 40 µM [6] [%] | inhibition at 72 h, 5 µM [7] [%]
C[C@H]1[C@H](OC(=O)CCC(=O)O)O[C@@H]2O[C@@]3(C)CC[C@H]4[C@H](C)CC[C@@H]1[C@@]24OO3 [ARTESUNATE] | Non-Toxic | 3 |  |  |  |  | 
C/C1=C\[C@H]2[C@@H](CC[C@]3(C)Oc4c(C=O)c(O)c(C(=O)CC(C)C)c(O)c4C[C@H]3CC1)C2(C)C |  | 23600 | Non-Toxic | > 75 | > 75 |  | 
CCc1nc(N)nc(N)c1-c1ccc(Cl)cc1 [PYRIMETHAMINE] |  | 20 |  |  |  | 33.4 | 
CC(=O)O[C@H]1C[C@@]2(C)[C@@H](C[C@@H](O)[C@H]3[C@@]4(C)CC[C@@H](O)[C@@H](C)[C@@H]4CC[C@@]32C)/C1=C(\CCC=C(C)C)C(=O)O [FUSIDIC ACID] |  |  |  | < 0.12 | < 0.12 |  | 
C=C(C)[C@@H]1C=C2[C@@H](C)CC[C@@H](Cc3c(O)c(C=O)c(O)c(C(=O)CC(C)C)c3O)[C@]2(C)CC1 |  | 1300 |  | 4.7 (≈ 2.14 µg/mL) | 4.7 (≈ 2.14 µg/mL) | > 85 | 
COc1ccc(C[C@H](N)C(=O)N[C@H]2[C@@H](O)[C@H](n3cnc4c(N(C)C)ncnc43)O[C@@H]2CO)cc1 [PUROMYCIN] |  | 80 |  |  |  |  | 0.89
C/C1=C\[C@@H]2[C@H](CC[C@@]3(C)Oc4c(c(O)c(C=O)c(O)c4C(=O)CC(C)C)C[C@@H]3CC1)C2(C)C |  | 15700 | Non-Toxic | 75 (≈ 34.1 µg/mL) | 75 (≈ 34.1 µg/mL) |  | 

Source: ChEMBL document CHEMBL5316372, “NMR Fingerprints of Formyl Phloroglucinol Meroterpenoids and Their Application to the Investigation of Eucalyptus gittinsii subsp. gittinsii” (J Nat Prod, 2023)
